Measured values: patent publication US5583142A, “Analgesic and nootropic drugs” (priority 1992, dated 1996)
Values joined by “and” are separate entries in the source; they are usually repeats but may differ in a detail not shown here. Identical values can stand only once. Like-named read-outs stand apart in the source and are kept apart here.

Legend:
[1] = tested on: presynaptic muscarinic autoreceptor; settings: cited from earlier work
[2] = mouse
Protocol: In FIGS. 7 and 7 bis vertical lines give s.e. mean. Each column represents the mean of 6-10 mice. SM-21 maleate, PG-9 maleate, SM-32 oxalate, cocaine HCl, amphetamine sulphate and caffeine were administered 15 min before test.

[3] = mouse rota-rod test (16 r.p.m.)
Description: All products tested to detect their antinociceptive activity had been previously tested by the rota-rod test to determine their maximum utilizable dose in analgesic tests. In fact, by this test it is possible to determine the highest dose of drug not impairing the normal performance of animals in a test that simultaneously evaluates motor coordination, equilibrium, resistance to fatigue, and muscle strength. This test is meant to evaluate the capability of mice to stay balanced on a rotating rod [cf. Vaught et al., Neuropharmacology, 24 (3) 211-216 (1985)].
The calculated doses were those used in the two analgesic tests on mice.

[4] = type: in vivo, mouse; settings: for ANALGESIC ACTIVITY (degree of analgesia, latency on hot plate): max. dose not affecting mice behaviour; for analgesic effect (AUC up to 45 min) compared with reference analgesics: mouse hot plate, FIG. 5, always (s.c. and i.p.); for Efficacy as analgesic (Morphine = 100), AUC (Area Under Curve) / Efficacy as analgesic (Morphine = 100), M.E. (Maximum Analgesic Effect): in vivo
in vivo = settings: mouse, sc
Description: Potency, efficacy and toxicity of SM21, PG9 and SM32 in comparison with
four principal reference analgesic drugs tested in mouse. As analgesic

[5] = mouse acetic acid writhing test; type: in vivo; settings: for efficacy in writhing test, in words / number of writhes / Efficacy as analgesic (Morphine = 100) / percent inhibition: mouse; for number of writhes / Efficacy as analgesic (Morphine = 100) / percent inhibition: 40 mg/kg s.c.; for Efficacy as analgesic (Morphine = 100) / percent inhibition: writhing; for ED50: sc, mouse writhing
Protocol: (§1) The analgesic action was detected in mouse, rat, guinea pig and dog. The mouse was subjected to hot plate and writhing tests; the rat to tail-flick and paw-pressure tests; the guinea pig to paw-pressure test only; the dog to the test described by Vainio et al. [J. Vet. Pharmacol. Ther., 12, 225-231 (1989)] using an electric stimulation. Consequently, the claimed compounds were tested with pain being induced by stimuli of different nature: thermal (hot plate and tail flick), chemical (writhing by acetic acid), mechanical (paw pressure) and electrical (cutaneous stimulation).
The claimed molecules, chosen as examples, were also assayed in mice by the writhing test (Table 4). The test is meant to evaluate the products capability to prevent mice writhes ensuing abdominal pains caused by i.p. injection of a 0.6% aqueous solution of acetic acid.
Acetic acid solution = 0.6% v/v.

rat paw-pressure test = type: in vivo; settings: for paw-pressure: 20 mg/kg i.p.
Protocol: as §1
(§2) As already mentioned, the claimed products were assayed also in rat by the paw-pressure and tail-flick tests.
(§3) Both tests were carried out with the max. doses not impairing the rats normal behaviour. […] The painful stimulus utilized in the paw-pressure test involved the animal consciousness to a much greater extent than the stimulus used in the tail-flick test, in fact, the type and anatomic localization of the latter mainly involved a spinal response.
(§4) Both tests on rats were carried out with the max. doses not altering the behaviour of the treated animals.

rat tail-flick test = type: in vivo; settings: for tail-flick: 20 mg/kg i.p.
Protocol: as §1, §2, §3, §4
The test was performed using th

[6] = guinea-pig paw-pressure test; type: in vivo; settings: for paw-pressure: guinea-pig, 20 mg/kg i.p.
Protocol: as §1
Effect of SM21 and PG9 in guineapig pawpressure test. *P < 0.01; P < 0.0
in comparison with saline controls. The number of guineapig is in […]

[7] = paw-pressure test in rats with a lesion in the nucleus basalis magnocellularis (NBM); type: in vivo, rat; settings: 30 mg/kg i.p.
Description: 3. […] In fact, as known, the magnocellular basal nucleus destruction causes the degeneration of most central cholinergic system.

[8] = 40 mg/kg s.c., 15 min after treatment
[9] = 40 mg/kg s.c., 30 min after treatment
[10] = 40 mg/kg s.c., 45 min after treatment
[11] = 50 mg/kg s.c., 15 min after treatment
[12] = 50 mg/kg s.c., 30 min after treatment
[13] = 50 mg/kg s.c., 45 min after treatment
[14] = mouse, 40 mg/kg i.p., 15 min after treatment
[15] = mouse, 40 mg/kg i.p., 30 min after treatment
[16] = mouse, 40 mg/kg i.p., 45 min after treatment
[17] = mouse, 40 mg/kg s.c., 15 min after treatment
[18] = mouse, 40 mg/kg s.c., 30 min after treatment
[19] = mouse, 40 mg/kg s.c., 45 min after treatment

SMILES: CCN(CC)CCNC(=O)c1ccc(N)cc1 [procainamide]
- selectivity and efficacy as antagonists of the presynaptic muscarinic autoreceptor [1]: little selective as well as little efficacious

SMILES: CN1CCC[C@H]1c1cccnc1 [nicotine]
- motor activity and curiosity (exploration activity) ([2]; FIG. 7 and FIG. 7 bis): remarkably increase the motor activity

SMILES: CCCCN1CCCCC1C(=O)Nc1c(C)cccc1C (centres unmarked) [bupivacaine]
- selectivity and efficacy as antagonists of the presynaptic muscarinic autoreceptor [1]: little selective as well as little efficacious

SMILES: CC(C(=O)O[C@H]1C[C@H]2CC[C@@H](C1)N2C)c1ccc(Br)cc1 (stereo partly drawn) [PG-9, 3α-Tropanyl 2-(p-bromophenyl)-propionate]
- rota-rod performance (number of falls in 30 s) [3, 8]: 1.2 ± 0.5 falls in 30 s
- rota-rod performance (number of falls in 30 s) [3, 9]: 0.8 ± 0.4 falls in 30 s
- rota-rod performance (number of falls in 30 s) [3, 10]: 1.3 ± 0.5 falls in 30 s
- rota-rod performance (number of falls in 30 s) ([3]; 45 mg/kg s.c., 15 min after treatment): 2.4 ± 0.8 falls in 30 s
- rota-rod performance (number of falls in 30 s) ([3]; 45 mg/kg s.c., 30 min after treatment): 1.3 ± 0.5 falls in 30 s
- rota-rod performance (number of falls in 30 s) ([3]; 45 mg/kg s.c., 45 min after treatment): 0.8 ± 0.4 falls in 30 s
- rota-rod performance (number of falls in 30 s) [3, 11]: 2.2 ± 0.6 falls in 30 s
- rota-rod performance (number of falls in 30 s) [3, 12]: 2.7 ± 0.6 falls in 30 s
- rota-rod performance (number of falls in 30 s) [3, 13]: 2.8 ± 0.4 falls in 30 s
- ANALGESIC ACTIVITY (degree of analgesia, latency on hot plate) [4]: ++++ (Latency above 35" ++++-)
- analgesic activity in mouse, in words ([4]; mouse): active in mouse
- analgesic effect (AUC up to 45 min) compared with reference analgesics [4]: always more active than all reference analgesics including morphine
- Efficacy as analgesic (Morphine = 100), AUC (Area Under Curve) ([4]; mouse): 123
- Efficacy as analgesic (Morphine = 100), M.E. (Maximum Analgesic Effect) ([4]; mouse): 106
- hot-plate latency [4, 14]: 42.5 ± 2.5 s
- hot-plate latency [4, 15]: 39.7 ± 2.1 s
- hot-plate latency [4, 16]: 26.7 ± 3.5 s
- hot-plate latency [4, 17]: 39.3 ± 3.4 s
- hot-plate latency [4, 18]: 35.1 ± 2.8 s
- hot-plate latency [4, 19]: 33.3 ± 2.6 s
- LD50 (in vivo): 373 µmol/kg
- efficacy in writhing test, in words [5]: less efficacious than ketorolac, are more efficacious than morphine
- number of writhes [5]: 6.1 ± 1.6
- Efficacy as analgesic (Morphine = 100) [5]: 110
- percent inhibition [5]: 82.2%
- ED50 [5]: 16.3 mg/kg and 34.8 µmol/kg
- activity in paw-pressure test, in words (rat paw-pressure test): inactive in rat
- paw-pressure (rat paw-pressure test; 15 min after treatment): 62.2 ± 6.0 g
- paw-pressure (rat paw-pressure test; 30 min after treatment): 62.4 ± 4.8 g
- paw-pressure (rat paw-pressure test; 45 min after treatment): 62.8 ± 4.2 g
- activity in tail-flick test, in words (rat tail-flick test): inactive
- tail-flick (rat tail-flick test; 15 min after treatment): 3.3 ± 0.2 s
- tail-flick (rat tail-flick test; 30 min after treatment): 2.9 ± 0.4 s
- tail-flick (rat tail-flick test; 45 min after treatment): 3.0 ± 0.3 s
- analgesic activity in guinea pig, in words ([6]; guinea pig): active in guinea pig
- paw-pressure ([6]; 15 min after treatment): 94.6 ± 4.4 g
- paw-pressure ([6]; 30 min after treatment): 83.0 ± 6.8 g
- paw-pressure ([6]; 45 min after treatment): 42.8 ± 5.6 g

SMILES: COC(=O)[C@H]1[C@@H](OC(=O)c2ccccc2)C[C@@H]2CC[C@H]1N2C [cocaine]
- motor activity and curiosity (exploration activity) ([2]; in vivo): remarkably increase the motor activity

SMILES: CCN(CC)CCOC(=O)c1ccc(N)cc1 [procaine]
- selectivity and efficacy as antagonists of the presynaptic muscarinic autoreceptor [1]: little selective as well as little efficacious

SMILES: Cc1cccc(C)c1OCC(C)N (centres unmarked) [mexyletine]
- selectivity and efficacy as antagonists of the presynaptic muscarinic autoreceptor [1]: little selective as well as little efficacious

SMILES: CCC(Oc1ccc(Cl)cc1)C(=O)O[C@H]1C[C@H]2CC[C@@H](C1)N2C (stereo partly drawn) [SM-21, 3α-Tropanyl 2-(p-chlorophenoxy)-butyrate]
- rota-rod performance (number of falls in 30 s) ([3]; 30 mg/kg s.c., 15 min after treatment): 1.9 ± 0.3 falls in 30 s
- rota-rod performance (number of falls in 30 s) ([3]; 30 mg/kg s.c., 30 min after treatment): 1.5 ± 0.5 falls in 30 s
- rota-rod performance (number of falls in 30 s) ([3]; 30 mg/kg s.c., 45 min after treatment): 1.2 ± 0.5 falls in 30 s
- rota-rod performance (number of falls in 30 s) [3, 8]: 1.6 ± 0.6 falls in 30 s
- rota-rod performance (number of falls in 30 s) [3, 9]: 1.2 ± 0.4 falls in 30 s
- rota-rod performance (number of falls in 30 s) [3, 10]: 1.2 ± 0.4 falls in 30 s
- rota-rod performance (number of falls in 30 s) [3, 11]: 2.2 ± 0.4 falls in 30 s
- rota-rod performance (number of falls in 30 s) [3, 12]: 2.6 ± 0.5 falls in 30 s
- rota-rod performance (number of falls in 30 s) [3, 13]: 2.4 ± 0.5 falls in 30 s
- rota-rod performance (number of falls in 30 s) ([3]; 60 mg/kg s.c., 15 min after treatment): 3.5 ± 0.5 falls in 30 s
- rota-rod performance (number of falls in 30 s) ([3]; 60 mg/kg s.c., 30 min after treatment): 4.3 ± 0.4 falls in 30 s
- rota-rod performance (number of falls in 30 s) ([3]; 60 mg/kg s.c., 45 min after treatment): 4.4 ± 0.6 falls in 30 s
- ANALGESIC ACTIVITY (degree of analgesia, latency on hot plate) [4]: ++++ (Latency above 35" ++++-)
- analgesic effect (AUC up to 45 min) compared with reference analgesics [4]: always more active than all reference analgesics including morphine
- Efficacy as analgesic (Morphine = 100), AUC (Area Under Curve) ([4]; mouse): 111
- Efficacy as analgesic (Morphine = 100), M.E. (Maximum Analgesic Effect) ([4]; mouse): 111
- hot-plate latency [4, 14]: 36.7 ± 2.1 s
- hot-plate latency [4, 15]: 32.0 ± 2.2 s
- hot-plate latency [4, 16]: 25.9 ± 2.7 s
- hot-plate latency [4, 17]: 38.9 ± 2.9 s
- hot-plate latency [4, 18]: 31.3 ± 2.5 s
- hot-plate latency [4, 19]: 29.4 ± 3.3 s
- LD50 (in vivo): 883 µmol/kg
- efficacy in writhing test, in words [5]: slightly inferior to morphine
- number of writhes [5]: 11.4 ± 1.6
- Efficacy as analgesic (Morphine = 100) [5]: 90
- percent inhibition [5]: 67.3%
- ED50 [5]: 21.5 mg/kg and 47.4 µmol/kg
- activity in paw-pressure test, in words (rat paw-pressure test): almost equivalent analgesia
- paw-pressure (rat paw-pressure test; 15 min after treatment): 93.1 ± 4.0 g
- paw-pressure (rat paw-pressure test; 30 min after treatment): 93.4 ± 5.4 g
- paw-pressure (rat paw-pressure test; 45 min after treatment): 92.3 ± 6.4 g
- activity in tail-flick test, in words (rat tail-flick test): active
- tail-flick (rat tail-flick test; 15 min after treatment): 3.6 ± 0.2 s
- tail-flick (rat tail-flick test; 30 min after treatment): 4.6 ± 0.4 s
- tail-flick (rat tail-flick test; 45 min after treatment): 4.9 ± 0.4 s
- paw-pressure ([6]; 15 min after treatment): 92.8 ± 4.0 g
- paw-pressure ([6]; 30 min after treatment): 110.0 ± 6.6 g
- paw-pressure ([6]; 45 min after treatment): 64.0 ± 6.2 g
- paw-pressure ([7]; lesioned (NBM) rats, 15 min after treatment): 75.1 ± 5.8 g
- paw-pressure ([7]; lesioned (NBM) rats, 30 min after treatment): 68.3 ± 4.9 g
- paw-pressure ([7]; lesioned (NBM) rats, 45 min after treatment): 67.2 ± 3.9 g
- paw-pressure ([7]; naive rats, 15 min after treatment): 109.6 ± 4.8 g
- paw-pressure ([7]; naive rats, 30 min after treatment): 87.5 ± 5.2 g
- paw-pressure ([7]; naive rats, 45 min after treatment): 67.8 ± 4.4 g
- paw-pressure ([7]; sham rats, 15 min after treatment): 104.9 ± 4.6 g
- paw-pressure ([7]; sham rats, 30 min after treatment): 93.4 ± 5.3 g
- paw-pressure ([7]; sham rats, 45 min after treatment): 63.9 ± 5.1 g
